Results reported in PubChem BioAssay AID1996.
Converted amounts (≈) assume the structure as drawn.

conditions: buffer; pH 7.4; 200.0 µM

`O=C1NCC(COc2ccc(Cl)cc2)O1` (stereo not drawn) and `O=C(NC(=S)N1CCCC1)c1ccc(Cl)cc1` cannot be ordered by solubility kinetic: greater than 34.1 µg/mL for the first, 35.4 µg/mL (≈ 132 µM) for the second.

Compared with `CCc1cc(C(=O)c2ccccc2)c(N)s1`, `N/C(CC1CC1(Cl)Cl)=N\OC(=O)c1ccccc1` (stereo not drawn) is higher in solubility kinetic: 16.6 µg/mL (≈ 71.8 µM) for the first, greater than 43.1 µg/mL for the second.

Compared with `COC(=O)c1ccc(N2C(=O)C3CC(C)=C(C)CC3C2=O)cc1` (stereo not drawn), `CC(C)(C)OC(=O)N1CCN(c2ccc([N+](=O)[O-])cc2)CC1` is 9.6-fold lower in solubility kinetic: 18.3 µg/mL (≈ 58.4 µM) for the first, 1.9 µg/mL (≈ 6.18 µM) for the second.

Going from `COc1ccccc1N1C(=O)CSC1=S` to `COc1ccc(N2C(=O)CCC2=O)c(OC)c1`, the solubility kinetic rises from 3.4 µg/mL (≈ 14.2 µM) to 33.8 µg/mL (≈ 144 µM) (9.9-fold).

`CC(C)(C)NC(=O)c1ccccc1-c1nc2ccccc2s1` and `CC(C(=O)NC(C)(C)C)N1C(=O)c2cccc3cccc(c23)C1=O` (stereo not drawn) are within 1.5-fold of each other in solubility kinetic: 35.6 µg/mL (≈ 115 µM) for the first, 40.2 µg/mL (≈ 124 µM) for the second.

`CC(=O)c1ccccc1NC(=O)CSc1n[nH]c(=O)n1C1CC1` and `C=CCn1c(O)c(C(C)=NC2CCN(Cc3ccccc3)CC2)c(=O)[nH]c1=O` cannot be ordered by solubility kinetic: greater than 49.9 µg/mL for the first, 53.6 µg/mL (≈ 140 µM) for the second.

`COc1cccc2[nH]c(C(=O)NCCCN3CCCC3=O)cc12` and `COc1cccc(C(=O)NCc2ccco2)c1OC` cannot be ordered by solubility kinetic: greater than 47.3 µg/mL for the first, greater than 39.2 µg/mL for the second.

Going from `CC(=O)OC1OCCOC1NC(=S)Nc1ccc(C)cc1` (stereo not drawn) to `Cc1ccc(NC(=O)Nc2ccc3c(c2)CCC3)c(C)c1`, the solubility kinetic falls from 44.4 µg/mL (≈ 143 µM) to less than 0.3 µg/mL.

Compared with `CCOCCCNC(=O)C1c2ccccc2Oc2ccccc21`, `CCc1ccc(NC(=O)NCc2ccccn2)cc1` is higher in solubility kinetic: 13.6 µg/mL (≈ 43.7 µM) for the first, greater than 38.3 µg/mL for the second.

First: O=C(Cn1ccc([N+](=O)[O-])n1)NCCc1c[nH]c2ccccc12
Second: Cl.O=C(COc1ccc(F)cc1)NCCCn1ccnc1
The solubility kinetic of the first is higher: greater than 47 µg/mL for the first, 39.1 µg/mL for the second.

First: O=C(Nc1cccc(-c2cn3cccnc3n2)c1)Nc1ccccc1F
Second: O=C(Nc1ccc(-c2ccccc2)cc1)c1ccco1
The solubility kinetic of the first is 13-fold lower: 1.7 µg/mL (≈ 4.89 µM) for the first, 22.4 µg/mL (≈ 85.1 µM) for the second.

Compared with `CN1C(=O)c2ccccc2C(C(=O)O)C1c1cccc([N+](=O)[O-])c1` (stereo not drawn), `O=C(Nc1ccc(NC(=O)C2CC2)cn1)c1ccccc1` is lower in solubility kinetic: greater than 48.9 µg/mL for the first, 41.6 µg/mL (≈ 148 µM) for the second.

Compared with `Cc1cccc(CSCc2ccc(C(=O)NCC3CCCO3)o2)c1` (stereo not drawn), `O=C(CNC(=O)c1ccc(Br)o1)Nc1ccccc1` is 7-fold lower in solubility kinetic: 46.6 µg/mL (≈ 135 µM) for the first, 6.7 µg/mL (≈ 20.7 µM) for the second.

`COc1cccc2c1OC1(CCN(C(C)C)CC1)N1N=C(c3cccnc3)CC21` (stereo not drawn) and `Cc1[nH]c2ccc(C(=O)N3CCN(C)CC3)cc2c1C` cannot be ordered by solubility kinetic: greater than 58.9 µg/mL for the first, greater than 40.7 µg/mL for the second.

`Cc1ccc2oc(=O)c(/C=C(\O)C(C)(C)C)nc2c1` and `Cc1ccc(CNc2ccc3c(c2)nc(C)n3C)cc1` are within 1.5-fold of each other in solubility kinetic: 28.3 µg/mL (≈ 109 µM) for the first, 38.3 µg/mL (≈ 144 µM) for the second.

Compared with `CC(C)(C)c1ccc(OCC(=O)Nc2ccncc2)cc1`, `CCc1ccc(OCC(=O)O/N=C(\N)c2ccncc2)cc1` is 1.9-fold higher in solubility kinetic: 3.7 µg/mL (≈ 13 µM) for the first, 7.1 µg/mL (≈ 23.7 µM) for the second.

First: Cc1ccc(/C=C2\C(=O)NC(=O)N(CC3CCCO3)C2=O)s1 (stereo not drawn)
Second: Cc1ccc(CNC(=O)C2CC(=O)N(C3CCCC3)C2)cc1 (stereo not drawn)
The solubility kinetic of the first is higher: greater than 48.1 µg/mL for the first, 41.2 µg/mL (≈ 137 µM) for the second.

Going from `CCc1c(C)sc(NC(=O)c2cc(C(C)C)on2)c1C#N` to `Cc1sc2nc(C(C)C)nc(SCC(=O)NC3CC3)c2c1C`, the solubility kinetic falls from 3.4 µg/mL (≈ 11.2 µM) to 1.5 µg/mL (≈ 4.47 µM) (2.3-fold).

First: S=C(NCc1ccccc1)Nc1ccncc1
Second: CN(C)C(CNc1ccc(C(F)(F)F)cn1)c1ccccc1 (stereo not drawn)
The solubility kinetic of the first is lower: 30 µg/mL (≈ 123 µM) for the first, greater than 46.4 µg/mL for the second.

First: Nc1nc(Cl)c(C=O)c(N2CCCCC2)n1
Second: CN(C(=O)CSc1nnc2n1CCCCC2)C1(C#N)CCCCC1
The solubility kinetic of the first is lower: 34.6 µg/mL (≈ 144 µM) for the first, greater than 52.1 µg/mL for the second.

First: Cc1cc(C)nc(S/C=C/C(=O)c2ccc(F)cc2)n1
Second: Cc1ccc2nc3c(nc2c1C)CCCC3
The solubility kinetic of the first is lower: less than 0.3 µg/mL for the first, 7.1 µg/mL (≈ 33.4 µM) for the second.

Going from `O=CN(c1ccccc1)c1ccc2ccccc2c1` to `NS(=O)(=O)c1cccc(C(=O)OCC(=O)NC2CCCc3ccccc32)c1` (stereo not drawn), the solubility kinetic rises from 14.2 µg/mL (≈ 57.4 µM) to 21.6 µg/mL (≈ 55.6 µM) (1.5-fold).

`CCCCOc1ccc(C(=O)OCC(=O)NC2CCCC2)cc1` and `CCCN(CC(=O)Nc1cc(Cl)ccc1Cl)C(=O)/C=C/c1cc(OC)ccc1OC` are within 1.5-fold of each other in solubility kinetic: 5.5 µg/mL (≈ 17.2 µM) for the first, 5.1 µg/mL (≈ 11.3 µM) for the second.

First: Cc1cccc(C)c1NC(=S)N1CC(C)OC(C)C1 (stereo not drawn)
Second: COCCNC(=O)c1cc2c(s1)-c1ccc(Cl)cc1SC2
The solubility kinetic of the first is higher: greater than 41.8 µg/mL for the first, 4.5 µg/mL (≈ 13.2 µM) for the second.
